According to patent publication US4457917A, “Peptide, process for its preparation and pharmaceutical composition containing same” (Max-Planck-Gesellschaft zur Foerderung der Wissenschaften …, priority 1981, dated 1984):
Non-standard residues stand in square brackets, D forms with d. No end group written: not given here. pGlu = O=C1CC[C@@H](C(=O)O)N1

Tests used:
[1] = system: Hydra; assay: Mitogen action on cell division in Hydra; type: in vivo
[2] = system: Hydra; assay: Head-specific determination in Hydra (interstitial parent cell determined to the nerve cell); type: in vivo
[3] = system: embryonal brain cells; assay: Growth-stimulating action on embryonal brain cells; type: cell-based; conditions: mammals
[4] = Blood pressure effect upon intraventricular administration; type: in vivo; conditions: mammals

## [pGlu]PPGGSKVILF [peptide of the invention]
[1]
  mitogen action, cell division of all types of cells: acts as a mitogen
[1]; order of magnitude
  concentration at which the effect occurs (mitogen): ~10^-10 M
[2]
  head-specific determination: responsible for head-specific determination
[2]; order of magnitude
  concentration at which the effect occurs (head-specific determination): ~10^-10 M
[3]
  action on growth of embryonal brain cells: growth-stimulating action
[4]
  effect on blood pressure: hypertensive (pressor) effect
